Measurements published in patent US20260262643A1, “HERBICIDAL BENZOXAZINES” (FMC CORPORATION, priority 2022, published 2026).

Assays:
ragweed [1] = assay: Test A postemergence; format: in vivo, Ambrosia artemisiifolia; details: postemergence, 10 days; for pest or weed control at 125 g/ha: read-out: Ragweed plant response rating
Method in brief: (§1)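 Seeds in loam–sand blend received a directed preemergence soil spray of compound in non-phytotoxic solvent with surfactant; postemergence plants (2–10 cm, one- to two-leaf stage) were sprayed with the same formulation. After 10 days in greenhouse, injury was rated visually versus untreated controls, 0 (no effect) to 100 (complete control).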

barnyardgrass = assay: Test A postemergence; format: in vivo, Echinochloa crusgalli; details: postemergence, 10 days; for Barnyardgrass plant response rating: 125 g ai/ha, 0 to 100 scale, 0 no effect, 100 complete control; for Plant response rating, Barnyardgrass: 500 g ai/ha, visual injury, 0 to 100 scale (0 no effect, 100 complete control)
Method in brief: as §1

galium = assay: Test A postemergence; format: in vivo, Galium aparine; details: postemergence, 10 days; for pest or weed control at 125 g/ha / pest or weed control at 500 g/ha: Galium, post-emergence, 240 h; for pest or weed control at 125 g/ha: read-out: Galium plant response rating; for pest or weed control at 500 g/ha: read-out: Plant response rating, Galium
Method in brief: as §1

oat, wild = assay: Test A postemergence; format: in vivo, Avena fatua; details: postemergence, 10 days; for Oat, Wild plant response rating: 0 to 100 scale, 0 no effect, 100 complete control
Method in brief: as §1

wheat [2] = assay: Test A preemergence; format: in vivo, Triticum aestivum; details: 0 to 100 scale; for plant injury at 125 g/ha / plant injury at 500 g/ha: Triticum aestivum, pre-emergence, 240 h, read-out: Plant response rating, Wheat
Method in brief: as §1

foxtail, giant = assay: Test A postemergence; format: in vivo, Setaria faberi; details: postemergence, 10 days; for pest or weed control at 125 g/ha / pest or weed control at 500 g/ha: Setaria faberi, post-emergence, 240 h; for pest or weed control at 125 g/ha: read-out: Foxtail, Giant plant response rating; for pest or weed control at 500 g/ha: read-out: Plant response rating, Foxtail, Giant
Method in brief: as §1

corn = assay: Test A preemergence; format: in vivo, Zea mays; details: 0 to 100 scale; for Corn plant response rating (crop injury, 0 = no effect, 100 = complete kill) at 125 g/ha / Corn plant response rating (crop injury, 0 = no effect, 100 = complete kill) at 500 g/ha: Zea mays, pre-emergence, 240 h
Method in brief: as §1

wheat [3] = assay: Test A postemergence; format: in vivo, Triticum aestivum; details: postemergence, 10 days; for plant injury at 125 g/ha / plant injury at 500 g/ha: Triticum aestivum, post-emergence, 240 h; for plant injury at 125 g/ha: read-out: Wheat plant response rating; for plant injury at 500 g/ha: read-out: Plant response rating, Wheat
Method in brief: as §1

ryegrass, Italian = assay: Test A postemergence; format: in vivo, Lolium multiflorum; details: postemergence, 10 days; for pest or weed control at 125 g/ha / pest or weed control at 500 g/ha: Lolium multiflorum, post-emergence, 240 h; for pest or weed control at 125 g/ha: read-out: Ryegrass, Italian plant response rating; for pest or weed control at 500 g/ha: read-out: Plant response rating, Ryegrass, Italian
Method in brief: as §1

soybean [4] = assay: Test A preemergence; format: in vivo, Glycine max; details: 0 to 100 scale
Method in brief: as §1

sedge, umbrella = assay: Test B flooded paddy test; format: in vivo, Cyperus difformis; details: 250 g ai/ha, Flood, 13 days, 0 to 100 scale (0 no effect, 100 complete control); for pest or weed control at 250 g/ha: Cyperus difformis, 312 h, read-out: Plant response rating, Sedge, Umbrella
Method in brief: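 Plants at the 2-leaf stage were flooded to 3 cm above the soil, and test compounds were applied directly into the paddy water, with that depth held throughout. After 13 days in a greenhouse, injury was rated visually against untreated controls on a 0–100 scale (100 = complete control).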

soybean [5] = assay: Test A postemergence; format: in vivo, Glycine max; details: postemergence, 10 days; for plant injury at 125 g/ha / plant injury at 500 g/ha: Glycine max, post-emergence, 240 h; for plant injury at 125 g/ha: read-out: Soybean plant response rating; for plant injury at 500 g/ha: read-out: Plant response rating, Soybean
Method in brief: as §1

ragweed [6] = assay: Test A preemergence; format: in vivo, Ambrosia artemisiifolia; details: 0 to 100 scale; for pest or weed control at 125 g/ha / pest or weed control at 500 g/ha: Ambrosia artemisiifolia, pre-emergence, 240 h, read-out: Plant response rating, Ragweed
Method in brief: as §1

pigweed, palmer = assay: Test A preemergence; format: in vivo, Amaranthus palmeri; details: 0 to 100 scale; for pest or weed control at 125 g/ha / pest or weed control at 500 g/ha: Amaranthus palmeri, pre-emergence, 240 h, read-out: Plant response rating, Pigweed, Palmer
Method in brief: as §1

[7] = Ambrosia artemisiifolia, post-emergence, 240 h, 125 g ai/ha, 0 to 100 scale (0 no effect, 100 complete control)
[8] = 125 g ai/ha, 0 to 100 scale (0 no effect, 100 complete control)
[9] = 500 g ai/ha, visual injury, 0 to 100 scale (0 no effect, 100 complete control)
[10] = 500 g ai/ha, visual injury after 10 days, 0 is no effect, 100 is complete control
[11] = Glycine max, pre-emergence, 240 h, 125 g ai/ha, read-out: Plant response rating, Soybean
[12] = 125 g ai/ha, 0 to 100 scale, 0 no effect, 100 complete control

| SMILES | pest or weed control at 125 g/ha (ragweed [1]; [7]) [%] | Barnyardgrass plant response rating (barnyardgrass) | Plant response rating, Barnyardgrass (barnyardgrass) | pest or weed control at 125 g/ha (galium; [8]) [%] | pest or weed control at 500 g/ha (galium; [9]) [%] | plant injury at 125 g/ha (wheat [2]; 125 g ai/ha) [%] | plant injury at 500 g/ha (wheat [2]; [10]) [%] | pest or weed control at 125 g/ha (foxtail, giant; [8]) [%] | pest or weed control at 500 g/ha (foxtail, giant; [9]) [%] | Corn plant response rating (crop injury, 0 = no effect, 100 = complete kill) at 125 g/ha (corn; 125 g ai/ha) [%] | Corn plant response rating (crop injury, 0 = no effect, 100 = complete kill) at 500 g/ha (corn; [10]) [%] | plant injury at 125 g/ha (wheat [3]; [8]) [%] | plant injury at 500 g/ha (wheat [3]; [9]) [%] | pest or weed control at 125 g/ha (ryegrass, Italian; [8]) [%] | pest or weed control at 500 g/ha (ryegrass, Italian; [9]) [%] | plant injury at 125 g/ha (soybean [4]; [11]) [%] | pest or weed control at 250 g/ha (sedge, umbrella) [%] | plant injury at 125 g/ha (soybean [5]; [8]) [%] | plant injury at 500 g/ha (soybean [5]; [9]) [%] | pest or weed control at 125 g/ha (ragweed [6]; 125 g ai/ha) [%] | other results |
| --- | --- | --- | --- | --- | --- | --- | --- | --- | --- | --- | --- | --- | --- | --- | --- | --- | --- | --- | --- | --- | --- |
| C[C@H]1CN(C(=S)c2cccc(-n3cncn3)c2)c2cccc(Cl)c2O1 [Compound 139, [(2S)-8-Chloro-2,3-dihydro-2-methyl-4H-1,4-benzoxazin-4-yl][3-(1H-1,2,4-triazol-1-yl)phenyl]methanethione] | 0 | 20 | 70 | 80 | 90 | 20 | 20 | 80 | 100 | 0 | 40 | 20 | 50 | 60 | 100 | 0 | 75 | 90 | 100 | 0 | pest or weed control at 500 g/ha (ragweed [1]; Ambrosia artemisiifolia, post-emergence, 240 h, 500 g ai/ha, visual injury, 0 to 100 scale (0 no effect, 100 complete control), read-out: Plant response rating, Ragweed): 30%; pest or weed control at 125 g/ha (oat, wild; Avena fatua, post-emergence, 240 h, 125 g ai/ha, 0 to 100 scale (0 no effect, 100 complete control), read-out: Oat, Wild plant response rating): 0%; pest or weed control at 500 g/ha (oat, wild; Avena fatua, post-emergence, 240 h, 500 g ai/ha, visual injury, 0 to 100 scale (0 no effect, 100 complete control), read-out: Plant response rating, Oat, Wild): 60%; plant injury at 500 g/ha (soybean [4]; Glycine max, pre-emergence, 240 h, 500 g ai/ha, visual injury after 10 days, 0 is no effect, 100 is complete control, read-out: Plant response rating, Soybean): 40%; pest or weed control at 500 g/ha (ragweed [6]; [10]): 0%; pest or weed control at 125 g/ha (pigweed, palmer; 125 g ai/ha): 40%; pest or weed control at 500 g/ha (pigweed, palmer; [10]): 100% |
| CC(C)c1ncn(-c2cc(C(=O)N3C[C@H](C)Oc4c(Cl)cccc43)c3ccccc3c2)n1 [Compound 146] | 0 | 20 | 20 | 50 |  | 0 |  | 30 |  | 0 |  | 20 |  | 20 |  | 0 |  | 50 |  | 0 | Plant response rating, Ragweed (ragweed [1]; [9]): 0; Plant response rating, Galium (galium; [9]): 80; Oat, Wild plant response rating (oat, wild; 125 g ai/ha): 0; Plant response rating, Oat, Wild (oat, wild; [9]): 10; Plant response rating, Wheat (wheat [2]; [10]): 0; Plant response rating, Foxtail, Giant (foxtail, giant; [9]): 50; Plant response rating, Corn (corn; [10]): 0; Plant response rating, Wheat (wheat [3]; [9]): 30; Plant response rating, Ryegrass, Italian (ryegrass, Italian; [9]): 40; Plant response rating, Soybean (soybean [4]; [10]): 20; Plant response rating, Sedge, Umbrella (sedge, umbrella): 0; Plant response rating, Soybean (soybean [5]; [9]): 100; Plant response rating, Ragweed (ragweed [6]; [10]): 0; Plant response rating, Pigweed, Palmer (pigweed, palmer; [10]): 100; pest or weed control at 125 g/ha (pigweed, palmer; 125 g ai/ha): 90% |
| CC(C)c1ncn(-c2cc(C(=O)N3C[C@H](C)Oc4c(Cl)cccc43)c3ccccc3c2)n1 [Compound 145] |  | 20 | 20 |  | 70 |  | 0 |  | 50 |  | 0 |  | 30 |  | 40 |  | 0 |  | 100 |  | Ragweed plant response rating (ragweed [1]; [12]): 0; Plant response rating, Ragweed (ragweed [1]; [9]): 10; Galium plant response rating (galium; [12]): 60; Oat, Wild plant response rating (oat, wild; 125 g ai/ha): 10; Plant response rating, Oat, Wild (oat, wild; [9]): 30; Plant response rating, Wheat (wheat [2]; 125 g ai/ha): 0; Foxtail, Giant plant response rating (foxtail, giant; [12]): 20; Plant response rating, Corn (corn; 125 g ai/ha): 0; Wheat plant response rating (wheat [3]; [12]): 30; Ryegrass, Italian plant response rating (ryegrass, Italian; [12]): 30; Plant response rating, Soybean (soybean [4]; 125 g ai/ha): 0; Plant response rating, Soybean (soybean [4]; [10]): 0; Soybean plant response rating (soybean [5]; [12]): 40; Plant response rating, Ragweed (ragweed [6]; 125 g ai/ha): 0; pest or weed control at 500 g/ha (ragweed [6]; [10]): 0%; Plant response rating, Pigweed, Palmer (pigweed, palmer; 125 g ai/ha): 80; pest or weed control at 500 g/ha (pigweed, palmer; [10]): 100% |
